Assay [1] has as its system Pseudomonas aeruginosa. Nature of the assay: Antibacterial activity against Pseudomonas aeruginosa. It is filed as functional, organism-based.
The test system of assay [2] is Escherichia coli. Nature of the assay: Antibacterial activity against Escherichia coli. Type of assay: functional, organism-based.
Assay [3] has as its system Staphylococcus aureus. Nature of the assay: Antibacterial activity against Staphylococcus aureus. Type of assay: functional, organism-based.
For assay [4], the system named is Pseudomonas aeruginosa. Nature of the assay: Antibacterial activity against Pseudomonas aeruginosa by two-fold serial dilution technique. It is filed as functional.
Assay [5] has as its system Staphylococcus aureus. Nature of the assay: Antibacterial activity against Staphylococcus aureus by two-fold serial dilution technique. Type of assay: functional.
In assay [6] the test system is Escherichia coli. Nature of the assay: Antibacterial activity against Escherichia coli by two-fold serial dilution technique. It is filed as functional.
The test system of assay [7] is Bacillus subtilis. Nature of the assay: Antibacterial activity against Bacillus subtilis by two-fold serial dilution technique. It is filed as functional.
Assay [8] deals with Micrococcus luteus. Nature of the assay: Antibacterial activity against Micrococcus luteus after 24 hrs by paper disc diffusion technique. Type of assay: functional. Particulars: Micrococcus luteus, 24 h; read-out: MIC. (In agar diffusion tests the substance spreads into inoculated agar from a disc or well.)
In assay [9] the test system is Escherichia coli. Nature of the assay: Antibacterial activity against Escherichia coli after 24 hrs by paper disc diffusion technique. Particulars: Escherichia coli, 24 h; read-out: MIC. It is filed as functional.
For assay [10], the system named is Staphylococcus aureus. Nature of the assay: Antibacterial activity against Staphylococcus aureus after 24 hrs by paper disc diffusion technique. Type of assay: functional. Particulars: Staphylococcus aureus, 24 h; read-out: MIC.
The test system of assay [11] is Pseudomonas aeruginosa. Nature of the assay: Antibacterial activity against Pseudomonas aeruginosa after 24 hrs by paper disc diffusion technique. It is filed as functional. The following applies: Pseudomonas aeruginosa, 24 h; read-out: MIC.
In assay [12] the test system is Klebsiella pneumoniae. Nature of the assay: Antibacterial activity against Klebsiella pneumoniae after 24 hrs by paper disc diffusion technique. The following applies: Klebsiella pneumoniae, 24 h; read-out: MIC. Type of assay: functional.
Assay [13] relates to Staphylococcus epidermidis. Nature of the assay: Antibacterial activity against Staphylococcus epidermidis after 24 hrs by paper disc diffusion technique. The following applies: Staphylococcus epidermidis, 24 h; read-out: MIC. It is filed as functional.

This note sets out measurements from ChEMBL document CHEMBL4613208, “Isatin derivatives and their anti-bacterial activities” (Eur J Med Chem, 2019).

≈ marks a conversion by molar mass, not a printed value.

As usually defined, the MIC is the lowest concentration found to suppress growth. Regarding `Cc1c(C)c2c(c(C)c1O)CCC(C)(C(=O)N/N=C1\C(=O)N(C)c3ccc(Cl)cc31)O2` (centres undefined), the MIC in [1], in [2] and in assay [3] was 12.5 to 100 µg/mL (≈ 28.3 to 226 µM) in each case.

For the compound `CC[C@H]1OC(=O)[C@H](C)[C@@H](O[C@H]2C[C@@](C)(OC)[C@@H](O)[C@H](C)O2)[C@H](C)[C@@H](O[C@@H]2O[C@H](C)C[C@H](N(C)C)[C@H]2O)[C@](C)(O)C[C@@H](C)CN(C)[C@H](C)[C@@H](O)[C@]1(C)O` [AZITHROMYCIN], the MIC in assay [1], in assay [2] and in assay [3] was 6.25 to 12.5 µg/mL (≈ 8.34 to 16.7 µM) each time.

`O=C(N/N=C1\C(=O)Nc2ccc(F)cc21)N/N=C1\C(=O)Nc2ccc(F)cc21`: the MIC in assay [4], in assay [5], in assay [6] and in assay [7] was 6.25 to 100 µg/mL (≈ 16.3 to 260 µM) each time.

On to `Cc1c(C)c2c(c(C)c1O)CCC(C)(C(=O)N/N=C1\C(=O)Nc3ccc(Br)cc31)O2` (centres undefined), for which the minimal inhibitory concentration (MIC) in assay [1], in assay [2] and in [3] was 12.5 to 100 µg/mL (≈ 26.5 to 212 µM) in each case.

As for `COc1cc(/C=N/c2ccc(/N=C3/C(=O)N(CN4CCN(c5cc6c(cc5F)c(=O)c(C(=O)O)cn6C5CC5)CC4)c4ccc(F)cc43)cc2)ccc1O`, the MIC in assay [8], in assay [9], in [10], in assay [11], in [12] and in assay [13] was 7.81 to 125 µg/mL (≈ 10.7 to 171 µM) each time.

Take `Cc1c(C)c2c(c(C)c1O)CCC(C)(C(=O)N/N=C1\C(=O)N(C)c3ccccc31)O2` (centres undefined): the MIC in [1], in [2] and in assay [3] was 12.5 to 100 µg/mL (≈ 30.7 to 245 µM) each time.

Turning to `O=C(N/N=C1\C(=O)Nc2ccc(Cl)cc21)N/N=C1\C(=O)Nc2ccc(Cl)cc21`, the MIC in assay [4], in assay [5], in assay [6] and in assay [7] was 6.25 to 100 µg/mL (≈ 15 to 240 µM) each time.

In the case of `O=C(N/N=C1\C(=O)N(Cc2ccccc2)c2ccc(Cl)cc21)N/N=C1\C(=O)N(Cc2ccccc2)c2ccc(Cl)cc21`, the MIC in [4], in assay [5], in [6] and in assay [7] was 6.25 to 100 µg/mL (≈ 10.5 to 167 µM) throughout.

In the case of `Cc1ccc2c(c1)/C(=N/NC(=O)N/N=C1\C(=O)N(Cc3ccccc3)c3ccc(C)cc31)C(=O)N2Cc1ccccc1`, the MIC in assay [4], in [5], in [6] and in assay [7] was 6.25 to 100 µg/mL (≈ 11.2 to 180 µM) in each case.

On to `Cc1c(C)c2c(c(C)c1O)CCC(C)(C(=O)N/N=C1\C(=O)Nc3ccc(Cl)cc31)O2` (centres undefined), for which the MIC in assay [1], in assay [2] and in assay [3] was 12.5 to 100 µg/mL (≈ 29.2 to 234 µM) each time.

For `Cc1c(C)c2c(c(C)c1O)CCC(C)(C(=O)N/N=C1\C(=O)Nc3cc(Cl)ccc31)O2` (centres undefined), the MIC in [1], in assay [2] and in assay [3] was 12.5 to 100 µg/mL (≈ 29.2 to 234 µM) throughout.

On to `O=C(N/N=C1\C(=O)Nc2ccc([N+](=O)[O-])cc21)N/N=C1\C(=O)Nc2ccc([N+](=O)[O-])cc21`, for which the MIC in assay [4], in assay [5], in assay [6] and in assay [7] was 6.25 to 100 µg/mL (≈ 14.3 to 228 µM) each time.

For `Cc1ccc(/C=N/c2ccc(/N=C3/C(=O)N(CN4CCN(c5cc6c(cc5F)c(=O)c(C(=O)O)cn6C5CC5)CC4)c4ccc(F)cc43)cc2)cc1`, the MIC in assay [8], in [9], in assay [10], in assay [11], in assay [12] and in assay [13] was 7.81 to 125 µg/mL (≈ 11.1 to 178 µM) each time.

For the compound `Cc1c(C)c2c(c(C)c1O)CCC(C)(C(=O)N/N=C1\C(=O)Nc3ccc(F)cc31)O2` (centres undefined), the MIC in assay [1], in assay [2] and in [3] was 12.5 to 100 µg/mL (≈ 30.4 to 243 µM) in each case.

In the case of `O=C(N/N=C1\C(=O)Nc2ccccc21)N/N=C1\C(=O)Nc2ccccc21`, the MIC in assay [4], in assay [5], in assay [6] and in assay [7] was 6.25 to 100 µg/mL (≈ 17.9 to 287 µM) in each case.

In the case of `O=C(O)c1cn(C2CC2)c2cc(N3CCN(CN4C(=O)/C(=N/c5ccc(/N=C/c6ccccc6O)cc5)c5cc(F)ccc54)CC3)c(F)cc2c1=O`, the minimum inhibitory concentration (MIC) in [8], in assay [9], in assay [10], in assay [11], in assay [12] and in assay [13] was 7.81 to 125 µg/mL (≈ 11.1 to 178 µM) throughout.

Take `COc1ccc(/C=N/c2ccc(/N=C3/C(=O)N(CN4CCN(c5cc6c(cc5F)c(=O)c(C(=O)O)cn6C5CC5)CC4)c4ccc(F)cc43)cc2)cc1`: the MIC in assay [8], in assay [9], in assay [10], in [11], in assay [12] and in assay [13] was 7.81 to 125 µg/mL (≈ 10.9 to 174 µM) throughout.
